# “Also recorded” adds a separate entry of the source. Where two headings read alike, the source gives them in different places.
# Assays:
# [1] = background; cited from earlier work
# liver = test: Computed tomography of liver in normal rabbits; assay type: in vivo, New Zealand white rabbits; details: predicted from CT imaging data
# Experimental: New Zealand white rabbits (male, 3.0 to 3.5 kg) were anesthetized by an intramuscular injection of a solution containing xylazine (8.6 mg/ml), ketamine (42.9 mg/ml), and acepromazine (1.4 mg/ml) at a dose of 0.4 ml/kg for a long-lasting effect. Intravenous catheters (22-gauge) were placed in a marginal ear vein for the introduction of particle suspension. Rabbits were positioned supine in a GE model 9800 Quick scanner (Milwaukee, Wis.). The particulate contrast agent of proper volume (8% I, w/v in saline) was injected through the catheterized ear vein over a period of 10 to 15 minutes.
# CT imaging of radiopaque particles (80 mg I/ml) was carried out at doses of 100, 200, and 270 mg I/kg body weight respectively. Three rabbits were used for each dose level. CT imaging was done with a scan speed of 1.0 seconds, 120 kV, 280 mAs, and a 25-cm field of view. Sequential, contiguous 3-mm-thick slices through the abdomen and 5-mm-thick-slices through the pelvis were obtained before contrast injection, immediately after injection and at various times (15 and 30 minutes, 1, 2, and 6 hours, and 1, 2, and 7 days after injection). The rabbits were killed with an overdose of pentobarbital sodium (50 mg/kg) administered via the catheterized ear vein.
# Densitometric analysis of the liver, kidney, aorta, and bladder were performed. […]
# Solubility of IX-C = assay type: physicochemical
# [2] = Enzymatic degradation of IX-C particles in rabbit plasma; assay type: in vitro ADME; details: plasma samples
# Experimental: (§1) Degradation of IX-C particles was investigated by incubating a suspension of the particles (25 mg) in the following solutions (each 1 ml) at 37° C.:0.1 N HCl, 0.1 N NaOH, saline, and rabbit plasma. The disappearance of the particles in the suspensions was noted by visual observations and the integrity of the particles was examined by scanning electron microscopy. To identify the degradation products, the residual solutions were subjected to analysis by HPLC. The HPLC system consisted of a RP-18 column, a Perkin-Elmer isocratic LC pump (Model 250), a PE Nelson 900 series interface, a Spectra-Physics UV/Vis detector (Model SP 8540) and a data station. The eluant (10% methanol in double distilled water) was run at 0.8 ml/min. with UV detection at 254 nm. Samples in HCl or NaOH were neutralized before injection. Plasma samples were first treated with PCA (0.4 N) and centrifuged to remove precipitate proteins. The supernatants were then injected for HPLC analysis.
# Swiss Webster mice = test: in vivo; details: male and female mice
# Experimental: (§2) Swiss Webster mice (Harlan Sprague Dawley Inc., Indianapolis, Ind.) weighing between 25 and 30 g were given doses ranging from 0.2 to 1 ml/mouse. Five animals were used for each dose. No anesthesia was used for injection. Following the injection, animals were monitored daily for 7 days. The percentage survival vs. dose curve was constructed to estimate LD50.
# in vivo = details: mouse, in vivo, iv
# Experimental: as §2
# [3] = Hydrolytic degradation of IX-C particles (HCl, NaOH, saline); assay type: physicochemical; details: supernatants of all samples (HCl, NaOH, saline, plasma)
# Experimental: as §1
# endothelial cells = details: background; cited from earlier work
smiles,measurement,setting,value
CC(=O)N(CC(O)CO)c1c(I)c(C(=O)NCCO)c(I)c(C(=O)NCC(O)CO)c1I (centres unmarked) [IOXILAN],overall biological tolerance,[1],high overall biological tolerance
"CC(=O)N(CC1COC(=O)O1)c1c(I)c(C(=O)NCC2COC(=O)O2)c(I)c(C(=O)N2CCOC2=O)c1I (centres unmarked) [IX-C, cyclic carbonate of IOXILAN]",predicted diagnostic dose,liver,100 mg I/kg body weight
same,lipid solubility,Solubility of IX-C,lipid soluble
same,solubility in acetone,Solubility of IX-C; acetone,soluble in acetone
same,solubility in methylene chloride,Solubility of IX-C; methylene chloride,limited solubility in methylene chloride; also recorded: slightly soluble in methylene chloride
same,solubility in water,Solubility of IX-C; water,insoluble in water
same,degradation product confirmed by FAB mass spectroscopy,[2],presence of IOXILAN was confirmed
same,LD50 compared with those reported for other particulate CM,Swiss Webster mice,slightly higher than those reported for other particulate CM
same,LD50 at 168 h,"in vivo; female Swiss Webster mice, tail vein, 7 days, read-out: LD50, females, as iodine",1200 mg/kg
same,LD50 at 168 h,"in vivo; female Swiss Webster mice, corresponding IX-C dose, read-out: LD50, females, as IX-C",2600 mg/kg
same,LD50 at 168 h,"in vivo; male Swiss Webster mice, tail vein, 7 days, read-out: LD50, males, as iodine",1400 mg/kg
same,LD50 at 168 h,"in vivo; male Swiss Webster mice, corresponding IX-C dose, read-out: LD50, males, as IX-C",3100 mg/kg
same,degradation products (HPLC),[3],IOXILAN and carbon dioxide
"O=C(CCCCC(=O)Nc1c(I)cc(I)c(C(=O)O)c1I)Nc1c(I)cc(I)c(C(=O)O)c1I [Iodipamide, iodipamide]",toxicity to endothelial cells,endothelial cells,toxic to endothelial cells

# Reference: patent US5686061A, “Particulate contrast media derived from non-ionic water soluble contrast agents for CT enhancement of hepatic tumors” (priority 1994, dated 1997)
